We go through 3 molecules from PMC9865085, “Expression and Characterisation of the First Snail-Derived UDP-Gal: Glycoprotein-N-acetylgalactosamine β-1,3-Galactosyltransferase (T-Synthase) from Biomphalaria glabrata” (Molecules, 2023).

Assay [1] deals with T1, T-synthase (UDP-Gal: glycoprotein-N-acetylgalactosamine β-1,3-galactosyltransferase) from Biomphalaria glabrata (Biomphalaria glabrata, UniProt A0A2C9JXL4).
T1 construct: full-length 388 aa type II transmembrane protein, C-terminal His-tag, codon-optimised synthetic gene, expressed in Sf9 cells; lysate or captured on anti-His magnetic beads
T1 sequence (A0A2C9JXL4 1-388): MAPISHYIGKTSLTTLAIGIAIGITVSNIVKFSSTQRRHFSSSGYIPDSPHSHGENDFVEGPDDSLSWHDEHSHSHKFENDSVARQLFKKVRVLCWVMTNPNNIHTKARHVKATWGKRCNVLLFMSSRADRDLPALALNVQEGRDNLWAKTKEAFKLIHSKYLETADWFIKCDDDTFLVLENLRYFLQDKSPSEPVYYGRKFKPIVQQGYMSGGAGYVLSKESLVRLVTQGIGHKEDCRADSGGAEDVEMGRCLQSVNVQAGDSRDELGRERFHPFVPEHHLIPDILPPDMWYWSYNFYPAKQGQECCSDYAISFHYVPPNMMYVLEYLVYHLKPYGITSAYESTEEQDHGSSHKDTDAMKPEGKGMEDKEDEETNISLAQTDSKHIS
Nature of the assay: galactosyl transfer to pNP-α-GalNAc, HPLC. It is filed as biochemical. As to conditions: 5 nmol added to 20 μL assay; 200 μM UDP-Gal, 1 mM pNP-α-GalNAc, 20 mM MnCl2, 2 mM ATP, 50 mM MES pH 6.5, 37 °C, 2 h; bead-bound enzyme or lysate not stated for this test.

The target of assay [2] is T1, T-synthase (UDP-Gal: glycoprotein-N-acetylgalactosamine β-1,3-galactosyltransferase) from Biomphalaria glabrata. Kind of assay: galactosyl transfer, HPLC; product linkage by NMR. In kind it is cell-based. As to conditions: acceptor, 1 mM; 200 μM UDP-Gal, 20 mM MnCl2, 2 mM ATP, 50 mM MES pH 6.5, 37 °C, 2 h; Sf9 lysate, control lysate inactive.

In the case of `O=c1ccn([C@@H]2O[C@H](COP(=O)(O)O)[C@@H](O)[C@H]2O)c(=O)[nH]1` [UMP], the “% inhibition at 5 nmol” value in assay [1] is reported as ~ 50%. For the molecule `O=c1ccn([C@@H]2O[C@H](COP(=O)(O)OP(=O)(O)OP(=O)(O)O)[C@@H](O)[C@H]2O)c(=O)[nH]1` [UTP], the “% inhibition at 5 nmol” value in assay [1] is given as ~ 50%. `CC(=O)N[C@H]1[C@@H](Oc2ccc([N+](=O)[O-])cc2)O[C@H](CO)[C@H](O)[C@@H]1O` [pNP-α-GalNAc]: the “galactosyl transfer, HPLC; product linkage by NMR” value in assay [2] was “the identity of the product pNP-α-GalNAc-β-1,3-Gal was clearly confirmed”.
